In US10213429B2, “Imidazo-pyrazinyl derivatives useful as soluble guanylate cyclase activators” (Merck Sharp & Dohme Corp., priority 2015, dated 2019):

Biological target: T1, sGC α1/β1 heterodimer (Homo sapiens, UniProt Q02108+Q02153)
T1 construct: expressed in transfected cells; host or cells: CHO-K1 (clone #7, CHO-K1/sGC)
T1 sequence (Q02108 1-690): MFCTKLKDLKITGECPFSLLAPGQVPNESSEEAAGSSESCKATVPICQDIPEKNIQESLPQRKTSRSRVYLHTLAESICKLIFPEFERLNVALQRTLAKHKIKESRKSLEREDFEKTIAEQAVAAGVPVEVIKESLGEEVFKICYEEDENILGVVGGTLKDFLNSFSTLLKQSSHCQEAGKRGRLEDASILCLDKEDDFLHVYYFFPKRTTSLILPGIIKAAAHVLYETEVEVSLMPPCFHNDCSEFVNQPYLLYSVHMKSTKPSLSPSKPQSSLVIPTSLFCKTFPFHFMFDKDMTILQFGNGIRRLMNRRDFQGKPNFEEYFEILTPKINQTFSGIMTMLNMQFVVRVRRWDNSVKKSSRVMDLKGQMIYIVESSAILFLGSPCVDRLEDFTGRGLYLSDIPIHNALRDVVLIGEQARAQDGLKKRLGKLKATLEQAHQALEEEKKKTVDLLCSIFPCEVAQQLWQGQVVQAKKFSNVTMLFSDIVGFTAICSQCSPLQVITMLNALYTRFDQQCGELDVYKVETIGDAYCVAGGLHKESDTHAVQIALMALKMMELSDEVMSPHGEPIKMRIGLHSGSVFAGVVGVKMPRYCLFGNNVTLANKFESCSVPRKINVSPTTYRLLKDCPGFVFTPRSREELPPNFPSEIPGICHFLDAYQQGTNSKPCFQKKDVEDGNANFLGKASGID
T1 sequence (Q02153 1-619): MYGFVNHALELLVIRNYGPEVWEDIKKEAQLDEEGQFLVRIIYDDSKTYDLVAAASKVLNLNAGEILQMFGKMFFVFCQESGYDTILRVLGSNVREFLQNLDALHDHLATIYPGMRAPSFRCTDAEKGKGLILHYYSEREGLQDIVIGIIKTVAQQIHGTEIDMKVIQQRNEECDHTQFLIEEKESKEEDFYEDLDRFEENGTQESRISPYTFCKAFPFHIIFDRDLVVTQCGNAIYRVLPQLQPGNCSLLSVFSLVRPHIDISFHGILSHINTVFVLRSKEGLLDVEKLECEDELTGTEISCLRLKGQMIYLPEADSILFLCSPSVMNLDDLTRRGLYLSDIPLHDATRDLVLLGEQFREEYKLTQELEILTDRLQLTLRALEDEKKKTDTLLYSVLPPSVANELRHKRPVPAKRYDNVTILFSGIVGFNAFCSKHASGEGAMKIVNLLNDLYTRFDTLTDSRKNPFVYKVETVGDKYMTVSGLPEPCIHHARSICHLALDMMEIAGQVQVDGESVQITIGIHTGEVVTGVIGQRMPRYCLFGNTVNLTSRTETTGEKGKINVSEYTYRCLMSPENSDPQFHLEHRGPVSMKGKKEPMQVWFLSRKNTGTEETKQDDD
Assay: Cell-Based sGC Functional Assay (CASA Assay), cGMP by HTRF in CHO-K1/sGC cells
Conditions: for Emax: CHO-K1, percent activation relative to maximum cGMP production of Compound A (= 100%), read-out: % Act.; for EC50: cGMP production, 1 hr at 37° C., 4P fit, presence or absence of 1 μM DETA-NO not given, read-out: IP (nM) (inflection point); for % Act.: percent activation relative to maximum cGMP production of Compound A (= 100%)
Text: Biological Assay 1: Cell-Based sGC Functional Assay (CASA Assay)
sGC is a heme-containing enzyme that converts GTP to secondary messenger cGMP. Increases in cGMP levels affect several physiological processes including vasorelaxation through multiple downstream pathways. […] Heme-dependent activators (HDAs) preferentially activate sGC containing a ferrous heme group. To determine the effect of sGC activators on enzyme activity, the CASA assay was developed to monitor the generation of cGMP in a cell line that stably expresses the heterodimeric sGC protein.
A CHO-K1 cell line stably expressing the sGC α1/β1 heterodimer was generated using a standard transfection protocol. CHO-K1 cells were transfected with plasmids pIREShyghsGCα1 and pIRESneo-hsGCβ1 simultaneously using FUGENE reagent. Clones that stably express both subunits were selected with hygromycin and neomycin for ˜2 weeks. Clone #7 was chosen for the assay and was designated CHO-K1/sGC. CHO-K1/sGC cells were maintained in F-K12 medium containing 10% heat-inactivated Fetal Bovine Serum (FBS), 100 μg/mL penicillin/streptomycin, 0.5 mg/mL hygromycin and 0.25 mg/mL G418. The cells were then cryopreserved in LN2. On the day of the assay, cells were thawed and resuspended in EBSS Assay Buffer (Sigma, E3024) supplemented with 5 mM MgCl2, 10 mM HEPES (4-(2-hydroxyethyl)piperazine-1-ethanesulfonic acid) and 0.05% BSA (bovine serum albumin) (EAB) and cell density was then adjusted to 4×10^5/mL with EAB. IBMX (3-isobutyl-1-methylxanthin, 0.5 mM) was added to inhibit degradation of cGMP. Compounds were diluted from DMSO stock solutions and added to the assay at a final DMSO concentration of 2.5%. Cells were incubated with compounds in the presence and absence of 1 μM of Diethylenetriamine/nitric oxide adduct (DETA-NO; Sigma, 17018) for 1 hr at 37° C. At the end of the incubation period, the reaction was terminated and the cells were lysed with the detection reagents from Cisbio Kits. The level of intracellular cGMP was determined using an HTRF-based assay kit (CisBio, 62GM2PEC), which detects the displacement of a fluorescence labeled cGMP from its specific antibody. The cGMP produced by test compounds was directly compared to the maximum cGMP production (this value was set to equal 100% activation.) of the published sGC-HDA Compound A:
[drawing 175] (Example 1 in WO 2010/065275, published Jun. 10, 2010). The test compounds' activities were then expressed as a percentage of Compound A, the standard in every experiment. This percent activation was calculated either in the presence or absence of DETA-NO which was then plotted. IP and maximum fold induction was derived using ADA analysis software for 4P fit.
The compounds in the Examples of the instant invention had inflection points (IP) less than or equal to 10 μM and most less than or equal to about 1 μM.

| Emax [%] | EC50 [nM] | % Act. [%] | Compound |
| --- | --- | --- | --- |
| 111 | 45 |  | CC1(c2ccc(Cl)cn2)C(=O)Nc2nc(-c3cn4ccnc4c(Cc4ccc(F)cc4)n3)nc(O)c21 (centres unmarked) [Example 16A, 5-(5-chloropyridin-2-yl)-2-(8-(4-fluorobenzyl)imidazo[1,2-a]pyrazin-6-yl)-4-hydroxy-5-methyl-5H-pyrrolo[2,3-d]pyrimidin-6(7H)-one] |
|  | 38 | 179 | CC1(C(=O)NC2CC2)C(=O)Nc2nc(-c3cn4ccnc4c(Cc4ccccc4F)n3)ncc21 (single isomer, unassigned) [Example 69A, N-cyclopropyl-2-(8-(2-fluorobenzyl)imidazo[1,2-a]pyrazin-6-yl)-5-methyl-6-oxo-6,7-dihydro-5H-pyrrolo[2,3-d]pyrimidine-5-carboxamide] |
| 130 | 24 |  | O=C1Nc2nc(-c3cn4ccnc4c(CCCC(F)(F)F)n3)ncc2C1(c1ccc(Cl)c(F)c1)C1CC1 (centres unmarked) [Example 48A, 5-(4-chloro-3-fluorophenyl)-5-cyclopropyl-2-(8-(4,4,4-trifluorobutyl)imidazo[1,2-a]pyrazin-6-yl)-5H-pyrrolo[2,3-d]pyrimidin-6(7H)-one] |
|  | 83 | 120 | O=C1Nc2nc(-c3cn4ccnc4c(Cc4ccc(F)cc4)n3)ncc2C1(C(=O)NC1CC1)C1CC1 (single isomer, unassigned) [Example 68B, N,5-dicyclopropyl-2-(8-(4-fluorobenzyl)imidazo[1,2-a]pyrazin-6-yl)-6-oxo-6,7-dihydro-5H-pyrrolo[2,3-d]pyrimidine-5-carboxamide] |
| 97 | 257 |  | CC1(c2ccc(F)cc2)C(=O)Nc2nc(-c3cn4ccnc4c(CCC(F)(F)C(F)(F)F)n3)nc(C#N)c21 (centres unmarked) [Example 85A, 5-(4-Fluorophenyl)-5-methyl-6-oxo-2-(8-(3,3,4,4,4-pentafluorobutyl)imidazo[1,2-a]pyrazin-6-yl)-6,7-dihydro-5H-pyrrolo[2,3-d]pyrimidine-4-carbonitrile] |
| 135 | 23 |  | CC1(c2ccc(F)cn2)C(=O)Nc2nc(-c3cn4ccnc4c(CCC(F)(F)C(F)(F)F)n3)nc(C3CC3)c21 (centres unmarked) [Example 71B, 4-Cyclopropyl-5-(5-fluoropyridin-2-yl)-5-methyl-2-(8-(3,3,4,4,4-pentafluorobutyl)imidazo[1,2-a]pyrazin-6-yl)-5H-pyrrolo[2,3-d]pyrimidin-6(7H)-one] |
| 125 | 18 |  | CC1(c2ccc(F)cn2)C(=O)Nc2nc(-c3cn4ccnc4c(CCCC(F)(F)F)n3)nc(C3CC3)c21 (centres unmarked) [Example 73B, 4-cyclopropyl-5-(5-fluoropyridin-2-yl)-5-methyl-2-(8-(4,4,4-trifluorobutyl)imidazo[1,2-a]pyrazin-6-yl)-5H-pyrrolo[2,3-d]pyrimidin-6(7H)-one] |
| 138 | 254 |  | O=C1Nc2nc(-c3cn4ccnc4c(Cc4ccc(F)cc4)n3)ncc2C1(C(=O)NC1CC1)C1CC1 (single isomer, unassigned) [Example 68A, N,5-dicyclopropyl-2-(8-(4-fluorobenzyl)imidazo[1,2-a]pyrazin-6-yl)-6-oxo-6,7-dihydro-5H-pyrrolo[2,3-d]pyrimidine-5-carboxamide] |
| 122 | 115 |  | CCCCc1nc(-c2nc(O)c3c(n2)NC(=O)C3(c2ccc(Cl)c(F)c2)C2CC2)cn2ccnc12 (centres unmarked) [Example 21A, 2-(8-butylimidazo[1,2-a]pyrazin-6-yl)-5-(4-chloro-3-fluorophenyl)-5-cyclopropyl-4-hydroxy-5H-pyrrolo[2,3-d]pyrimidin-6(7H)-one] |
| 165 | 124 |  | CC1(c2ccc(Cl)cc2)C(=O)Nc2nc(-c3cn4ccnc4c(CCC(F)(F)F)n3)nc(C3CC3)c21 (centres unmarked) [Example 74A, 5-(4-chlorophenyl)-4-cyclopropyl-5-methyl-2-(8-(3,3,3-trifluoropropyl)imidazo[1,2-a]pyrazin-6-yl)-5H-pyrrolo[2,3-d]pyrimidin-6(7H)-one] |
| 90 | 136 |  | CC1(c2ccc(Cl)cc2)C(=O)Nc2nc(-c3cn4ccnc4c(OCCC4CC4)n3)nc(O)c21 (centres unmarked) [Example 94A, 5-(4-Chlorophenyl)-2-(8-(2-cyclopropylethoxy)imidazo[1,2-a]pyrazin-6-yl)-4-hydroxy-5-methyl-5H-pyrrolo[2,3-d]pyrimidin-6(7H)-one] |
| 84 | 702 |  | CCCc1nc(-c2nc(O)c3c(n2)NC(=O)C3(C)c2ccc(Cl)c(F)c2)cn2ccnc12 (centres unmarked) [Example 15B, 5-(4-chloro-3-fluorophenyl)-4-hydroxy-5-methyl-2-(8-propylimidazo[1,2-a]pyrazin-6-yl)-5H-pyrrolo[2,3-d]pyrimidin-6(7H)-one] |
| 142 | 1180 |  | O=C1Nc2nc(-c3cn4ccnc4c(CCC(F)(F)C(F)(F)F)n3)nc(O)c2C1(c1ccc(Cl)cn1)C1CC1 (centres unmarked) [Example 8A, 5-(5-chloropyridin-2-yl)-5-cyclopropyl-4-hydroxy-2-(8-(3,3,4,4,4-pentafluorobutyl)imidazo[1,2-a]pyrazin-6-yl)-5H-pyrrolo[2,3-d]pyrimidin-6(7H)-one] |
| 126 | 438 |  | O=C1Nc2nc(-c3cn4ccnc4c(CCCC(F)(F)F)n3)nc(O)c2C1(c1ccc(Cl)c(F)c1)C1CC1 (centres unmarked) [Example 22A, 5-(4-chloro-3-fluorophenyl)-5-cyclopropyl-4-hydroxy-2-(8-(4,4,4-trifluorobutyl)imidazo[1,2-a]pyrazin-6-yl)-5H-pyrrolo[2,3-d]pyrimidin-6(7H)-one] |
| 139 | 462 |  | O=C1Nc2nc(-c3cn4ccnc4c(CCCC(F)(F)F)n3)nc(O)c2C1(c1ccc(F)c(F)c1)C1CC1 (centres unmarked) [Example 20A, 5-cyclopropyl-5-(3,4-difluorophenyl)-4-hydroxy-2-(8-(4,4,4-trifluorobutyl)imidazo[1,2-a]pyrazin-6-yl)-5H-pyrrolo[2,3-d]pyrimidin-6(7H)-one] |
| 111 | 122 |  | CC1(c2ccc(F)cc2)C(=O)Nc2nc(-c3cn4ccnc4c(Cc4ccc(F)cc4)n3)ncc21 (centres unmarked) [Example 80A, 2-(8-(4-fluorobenzyl)imidazo[1,2-a]pyrazin-6-yl)-5-(4-fluorophenyl)-5-methyl-5H-pyrrolo[2,3-d]pyrimidin-6(7H)-one] |
